Assay results as given in ChEMBL document CHEMBL4715817, “Python Cathelicidin CATHPb1 Protects against Multidrug-Resistant Staphylococcal Infections by Antimicrobial-Immunomodulatory Duality” (J Med Chem, 2018).
In brackets after ≈: the same amount, converted by molar mass. Activity calls are given as the source filed them. The calls are words filed in the database; no cut-off is given here. Peptide text beside a SMILES is read from it.

Columns and labels:
[1] = Induction of neutrophil extracellular trap formation in neutrophil (unknown origin) at 10 ug/ml measured after 3 hrs by fluorescence analysis; assay type: functional; conditions: dose 10 µg/ml
[2] = system: Staphylococcus epidermidis; test: Antimicrobial activity against Staphylococcus epidermidis IS 08032706 incubated for 16 to 18 hrs by fluorescence microplate reader analysis; assay type: functional; conditions: time 16-18 hrs
[3] = Cytotoxicity against mouse peritoneal macrophage assessed as cell death at 100 ug/ml by MTT assay; assay type: tissue-based
Escherichia coli = test: Antimicrobial activity against Escherichia coli ATCC 25922 incubated for 16 to 18 hrs by fluorescence microplate reader analysis; assay type: functional; conditions: time 16-18 hrs
Mus musculus [4] = test: Immunomodulatory activity in Kunming mouse infected with vancomycin-resistant Staphylococcus aureus assessed as increased in IL-10 level in peritoneal lavage at 10 mg/kg, ip administered 24 hrs before infection by ELISA; assay type: functional, organism-based
Macrophage [5] = test: Immunomodulatory activity in mouse peritoneal macrophage assessed as inhibition of LPS-induced IL-6 level measured after 24 hrs by ELISA; assay type: functional; conditions: dose 5-20 µg/ml
Klebsiella oxytoca [6] = test: Antibiofilm activity against Klebsiella oxytoca assessed as biofilm eradication at BIC-5 by XTT and crystal violet staining assay relative to control; assay type: functional
Staphylococcus aureus [7] = test: Antibacterial activity against vancomycin-resistant Staphylococcus aureus assessed as bactericidal activity incubated at 0 to 90 degree C for 1 hr; assay type: functional, organism-based
Mus musculus [8] = test: Immunomodulatory activity in mouse assessed as increase […] of MCP-1 in peritoneal cavity at 10 mg/kg, ip measured after 5 to 24 hrs by ELISA; assay type: functional, organism-based; conditions: time 5-24 hrs
[9] = Induction of neutrophil extracellular trap formation in neutrophil (unknown origin) at 40 ug/ml measured after 3 hrs by fluorescence analysis; assay type: functional; conditions: dose 40 µg/ml
[10] = Toxicity in Kunming mouse assessed as effect on MCP-1 levels at 10 mg/kg, ip measured after 5 hrs by ELISA; assay type: organism-based; conditions: in vivo
Staphylococcus aureus [11] = test: In vivo antibacterial activity against vancomycin resistant Staphylococcus aureus infected in macrophage/monocyte deficient kunming mouse assessed as bacterial load in peritoneal lavage at 10 mg/kg, ip administered 24 hrs before infection; assay type: functional, organism-based
Mus musculus [12] = test: Immunomodulatory activity in Kunming mouse infected with vancomycin-resistant Staphylococcus aureus assessed as increased in CXCL1/KC level in peritoneal lavage at 10 mg/kg, ip administered 24 hrs before infection by ELISA; assay type: functional, organism-based
Staphylococcus aureus [13] = test: Antibacterial activity against vancomycin-resistant Staphylococcus aureus assessed as bacterial growth inhibition in presence of 100 mmol NaCl; assay type: functional
[14] = system: Stenotrophomonas maltophilia; test: Antimicrobial activity against Stenotrophomonas maltophilia IS 090223 incubated for 16 to 18 hrs by fluorescence microplate reader analysis; assay type: functional; conditions: time 16-18 hrs
Nakaseomyces glabratus = test: Antimicrobial activity against Candida glabrata IS 08A802 incubated for 16 to 18 hrs by fluorescence microplate reader analysis; assay type: functional; conditions: time 16-18 hrs
Macrophage [15] = test: Inhibition of LPS-induced phosphorylation of p38 in mouse peritoneal macrophage pretreated for 1 hr followed by LPS stimulation measured after 30 mins by Western blot analysis; assay type: tissue-based; conditions: dose 5-20 µg/ml, time 1.5 hrs
[16] = Toxicity in Kunming mouse assessed as effect on TNF-alpha levels at 10 mg/kg, ip measured after 5 hrs by ELISA; assay type: organism-based; conditions: in vivo
[17] = Immunomodulatory activity in mouse peritoneal macrophage assessed as inhibition of LPS-induced IL-6 level at 5 ug/ml measured after 6 hrs by qRT-PCR analysis relative to control; assay type: functional
Staphylococcus aureus [18] = test: Antimicrobial activity against Staphylococcus aureus IS 08032706 incubated for 16 to 18 hrs by fluorescence microplate reader analysis; assay type: functional; conditions: time 16-18 hrs
Staphylococcus aureus [19] = test: In vivo antibacterial activity against vancomycin resistant Staphylococcus aureus infected in kunming mouse assessed as reduction in bacterial load in peritoneum at 10 mg/kg, sc measured 18 hrs after infection; assay type: functional, organism-based
Neutrophil = test: Immunomodulatory activity in neutrophils (unknown origin) assessed as effect on TNF-alpha level at 20 ug/ml measured after 12 hrs by ELISA; assay type: functional, cell-based; conditions: dose 20.0 µg/ml
Macrophage [20] = test: Immunomodulatory activity in mouse peritoneal macrophage assessed as inhibition of LPS-induced MCP-1 level measured after 24 hrs by ELISA; assay type: functional, tissue-based; conditions: dose 5-20 µg/ml
[21] = Induction of neutrophil extracellular trap formation in neutrophil (unknown origin) at 20 ug/ml measured after 3 hrs by fluorescence analysis; assay type: functional; conditions: dose 20 µg/ml
Candida albicans [22] = test: Antimicrobial activity against Candida albicans IS 08022710 incubated for 16 to 18 hrs by fluorescence microplate reader analysis; assay type: functional; conditions: time 16-18 hrs
Macrophage [23] = test: Immunomodulatory activity in mouse peritoneal macrophage assessed as inhibition of LPS-induced TNF-alpha level measured after 24 hrs by ELISA; assay type: functional, tissue-based; conditions: dose 5-20 µg/ml
Macrophage [24] = test: Immunomodulatory activity in mouse peritoneal macrophage assessed as inhibition of LPS-induced IL-6 level measured after 6 hrs by qRT-PCR analysis; assay type: functional, tissue-based; conditions: dose 5-20 µg/ml
Mus musculus [25] = test: Immunomodulatory activity in Kunming mouse infected with vancomycin-resistant Staphylococcus aureus assessed as effect number of inflammatory macrophages in peritoneal cavity at 10 mg/kg, ip measured upto 24 hrs by flow cytometry; assay type: functional, organism-based; conditions: time hrs <=24
[26] = Immunomodulatory activity in mouse peritoneal macrophage assessed as increase in IL-10 mRNA level at 20 ug/ml measured after 6 hrs by qRT-PCR analysis relative to control; assay type: functional; conditions: dose 20 µg/ml
Staphylococcus aureus [27] = test: Antimicrobial activity against vancomycin resistant Staphylococcus aureus IS 08032810, incubated for 16 to 18 hrs by fluorescence microplate reader analysis; assay type: functional; conditions: time 16-18 hrs
Staphylococcus aureus [28] = test: In vivo antibacterial activity against vancomycin resistant Staphylococcus aureus infected in neutropenic kunming mouse model assessed as bacterial load in peritoneal lavage at 10 mg/kg, ip administered 24 hrs before infection; assay type: functional, organism-based
Nocardia asteroides = test: Antimicrobial activity against Nocardia asteroids incubated for 16 to 18 hrs by fluorescence microplate reader analysis; assay type: functional; conditions: time 16-18 hrs
Mus musculus [29] = test: Immunomodulatory activity in Kunming mouse infected with vancomycin-resistant Staphylococcus aureus assessed as increased in CXCL1/KC level in peritoneal lavage at 10 mg/kg, ip administered 4 hrs after infection by ELISA; assay type: functional, organism-based
Candida albicans [30] = test: Antimicrobial activity against Candida albicans IS 08030401 incubated for 16 to 18 hrs by fluorescence microplate reader analysis; assay type: functional; conditions: time 16-18 hrs
Mus musculus [31] = test: Immunomodulatory activity in Kunming mouse infected with vancomycin-resistant Staphylococcus aureus assessed as decreased in IL-1beta level in peritoneal lavage at 10 mg/kg, ip administered 24 hrs before infection by ELISA; assay type: functional, organism-based
Macrophage [32] = test: Immunomodulatory activity in mouse peritoneal macrophage assessed as inhibition of LPS-induced IL-1beta level measured after 6 hrs by qRT-PCR analysis; assay type: functional, tissue-based; conditions: dose 5-20 µg/ml
Klebsiella pneumoniae = test: Antimicrobial activity against Klebsiella pneumoniae IS 1400 incubated for 16 to 18 hrs by fluorescence microplate reader analysis; assay type: functional; conditions: time 16-18 hrs
[33] = molecular target: Mitogen-activated protein kinase 8/9 (Homo sapiens) (UniProt P45983+P45984); test: Inhibition of LPS-induced phosphorylation of Jnk1/2 in mouse peritoneal macrophage at 20 ug/ml pretreated for 1 hr followed by LPS stimulation measured after 30 mins by Western blot analysis relative to control; assay type: tissue-based; conditions: dose 20.0 µg/ml, time 1.5 hrs
Chain of Mitogen-activated protein kinase 8/9 (Homo sapiens) (P45983 whole entry, looked up): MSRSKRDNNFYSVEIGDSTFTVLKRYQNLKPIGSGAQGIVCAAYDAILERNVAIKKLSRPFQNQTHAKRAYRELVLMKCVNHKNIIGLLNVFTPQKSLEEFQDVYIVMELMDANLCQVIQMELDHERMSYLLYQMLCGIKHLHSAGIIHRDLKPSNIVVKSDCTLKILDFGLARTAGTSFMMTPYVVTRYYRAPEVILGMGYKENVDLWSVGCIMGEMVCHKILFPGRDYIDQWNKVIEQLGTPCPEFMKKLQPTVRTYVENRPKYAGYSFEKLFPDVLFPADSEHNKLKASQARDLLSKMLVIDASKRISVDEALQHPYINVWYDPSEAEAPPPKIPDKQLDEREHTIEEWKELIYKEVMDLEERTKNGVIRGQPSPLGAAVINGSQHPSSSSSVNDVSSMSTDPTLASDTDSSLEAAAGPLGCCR
Chain of Mitogen-activated protein kinase 8/9 (Homo sapiens) (P45984 whole entry, looked up): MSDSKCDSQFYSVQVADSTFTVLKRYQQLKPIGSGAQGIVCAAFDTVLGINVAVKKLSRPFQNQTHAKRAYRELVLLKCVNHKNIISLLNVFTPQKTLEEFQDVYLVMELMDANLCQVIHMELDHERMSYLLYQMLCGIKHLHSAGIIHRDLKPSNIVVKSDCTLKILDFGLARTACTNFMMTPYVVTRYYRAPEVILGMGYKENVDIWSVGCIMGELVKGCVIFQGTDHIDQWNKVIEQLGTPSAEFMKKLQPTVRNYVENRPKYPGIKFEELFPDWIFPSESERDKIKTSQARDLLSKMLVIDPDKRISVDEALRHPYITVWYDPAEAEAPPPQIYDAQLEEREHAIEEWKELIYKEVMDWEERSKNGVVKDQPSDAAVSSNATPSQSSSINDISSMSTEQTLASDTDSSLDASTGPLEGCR

Klebsiella oxytoca [34] = test: Antimicrobial activity against Klebsiella oxytoca incubated for 16 to 18 hrs by fluorescence microplate reader analysis; assay type: functional; conditions: time 16-18 hrs

CC[C@H](C)[C@H](NC(=O)[C@@H]1CCCN1C(=O)[C@@H](NC(=O)[C@@H](NC(=O)CNC(=O)CNC(=O)[C@@H](NC(=O)[C@H](Cc1ccccc1)NC(=O)[C@@H](NC(=O)[C@H](CCCCN)NC(=O)[C@@H](NC(=O)[C@H](CCCCN)NC(=O)[C@H](CCCCN)NC(=O)[C@H](Cc1ccccc1)NC(=O)[C@@H](NC(=O)[C@H](CCCCN)NC(=O)[C@H](CCCNC(=N)N)NC(=O)[C@H](Cc1ccccc1)NC(=O)CNC(=O)[C@H](CCCCN)NC(=O)[C@H](CCCCN)NC(=O)[C@@H](NC(=O)[C@H](CCCCN)NC(=O)[C@H](CCCNC(=N)N)NC(=O)[C@H](Cc1ccccc1)NC(=O)[C@H](Cc1ccccc1)NC(=O)[C@H](CCCCN)NC(=O)[C@H](CCCCN)NC(=O)[C@H](Cc1ccccc1)NC(=O)[C@H](CCCNC(=N)N)NC(=O)[C@@H](N)CCCCN)[C@@H](C)CC)[C@@H](C)CC)[C@@H](C)O)[C@@H](C)CC)[C@@H](C)CC)[C@@H](C)O)[C@@H](C)CC)C(=O)O (H-KRFKKFFRKIKKGFRKIFKKTKIFIGGTIPI-OH)
Activity [1]: 15.65%
MIC [2]: 1.17 µg/mL (≈ 0.308 µM)
Activity [3]: 6.46%
MIC (Escherichia coli): 1.17 µg/mL (≈ 0.308 µM)
Activity (Mus musculus [4]): Active
inhibition (Macrophage [5]): Dose-dependent effect
Activity (Klebsiella oxytoca [6]): 75.31%
Activity (Staphylococcus aureus [7]): Active
Activity (Mus musculus [8]): Active
Activity [9]: 41.16%
Activity [10]: Non-Toxic
Activity (Staphylococcus aureus [11]): inactive
Activity (Mus musculus [12]): Active
MIC (Staphylococcus aureus [13]): < 10 µg/mL
MIC [14]: 1.17 µg/mL (≈ 0.308 µM)
MIC (Nakaseomyces glabratus): 1.17 µg/mL (≈ 0.308 µM)
inhibition (Macrophage [15]): Dose-dependent effect
Activity [16]: Non-Toxic
inhibition at 5 µg/mL [17]: 99.6%
MIC (Staphylococcus aureus [18]): 1.17 µg/mL (≈ 0.308 µM)
Activity (Staphylococcus aureus [19]): Active
Activity (Neutrophil): inactive
inhibition (Macrophage [20]): Dose-dependent effect
Activity [21]: 32.53%
MIC (Candida albicans [22]): 1.17 µg/mL (≈ 0.308 µM)
inhibition (Macrophage [23]): Dose-dependent effect
inhibition (Macrophage [24]): Dose-dependent effect
Activity (Mus musculus [25]): inactive
fold change (FC) [26]: 8
MIC (Staphylococcus aureus [27]): 1.17 µg/mL (≈ 0.308 µM)
Activity (Staphylococcus aureus [28]): inactive
MIC (Nocardia asteroides): 1.17 µg/mL (≈ 0.308 µM)
Activity (Mus musculus [29]): Active
MIC (Candida albicans [30]): 1.17 µg/mL (≈ 0.308 µM)
Activity (Mus musculus [31]): Active
inhibition (Macrophage [32]): Dose-dependent effect
MIC (Klebsiella pneumoniae): 1.17 µg/mL (≈ 0.308 µM)
inhibition [33]: 85%
MIC (Klebsiella oxytoca [34]): 1.17 µg/mL (≈ 0.308 µM)
